Test: Stability of compound A microspheres: degradation products by HPLC after manufacture, γ-irradiation and storage
Type: physicochemical
Settings: for Increase of degradation product (%) after storage at 5°C / Increase of degradation product (%) after storage at 25°C: further increase (+) on storage; for Increase of degradation product (%) after man. + γ-irrad. / Increase of degradation product (%) after manufacture: microspheres, pilot batches; for degradation: during manufacture, sterilization and 1 month storage (5°C)
Protocol: Microparticles were produced by a modified triple-emulsion technique. Compound A pamoate salt was dispersed in a small amount of water (14 mg pamoate salt in 0.1 ml) and the dispersion was intensively homogenized using an Ultra-Turrax T25 (Janke & Kunkel IKA-Werk) into a solution (10-25%) of DL-PLG-GLU in methylene chloride (emulsion process). Alternatively, compound A pamoate salt was directly dispersed into the solution of polymer in methylene chloride (suspension process). The resulting primary water/oil (W/O) emulsion or suspension (S/O) was then intensively mixed with the external phase (in a ratio of 1:40), a gelatin containing aqueous solution. After stirring for one hour in order to evaporate the methylene chloride, the generated microspheres were collected by filtration, washed with water and dried under high vacuum at room temperature for 1 - 3 days. Storage was effected at 5°C. Sterilization was effected by γ-irridation (25 kGy required) by using nitrogen as a protecting gas.
Compound A content and purity of the microparticles was determined by HPLC (RP-18 columns, acetonitril - tetramethyl ammonium hydroxide/water gradient) after extraction of the peptide from the microspheres using tetrahydrofuran acetate buffer, pH 4.2 (1:1).
The generation of degradation products of compound A during the manufacture process, γ-irradiation and subsequent strorage at various temperatures is represented in Table 2. Potential stability problems arose with the acetate and the phosphate salts of compound A: during manufacture, sterilization and 1 month storage (5°C) 5 - 10% degradation occurred. These problems could be circumvented by the use of the pamoate. After manufacture, sterilization and three months of storage even at 25°C there was an increase of degradation products of less than 1.5%, more particularly of less than 0.5% after manufacture, less than 1.0% from the beginning of manufacture to just after irradiation and , inclusive of storage for 3 months at 25°C less than 1.5%.

Row | SMILES | Increase of degradation product (%) after storage at 5°C (3 months) | Increase of degradation product (%) after storage at 25°C (3 months) | increase of degradation products (after manufacture) | increase of degradation products (after manufacture, sterilization and three months of storage at 25°C) | increase of degradation products (from the beginning of manufacture to just after irradiation) | Increase of degradation product (%) after man. + γ-irrad. | Increase of degradation product (%) after manufacture | Increase of degradation product (%) after storage at 5°C (1 month) | Increase of degradation product (%) after storage at 25°C (1 month) | degradation
1 | CC(=O)N[C@H](Cc1ccc2ccccc2c1)C(=O)N[C@H](Cc1ccc(Cl)cc1)C(=O)N[C@H](Cc1c[nH]c2ccccc12)C(=O)N[C@@H](CO)C(=O)N[C@@H](Cc1ccc(O)cc1)C(=O)N[C@H](CCCCNCC(O)CO)C(=O)N[C@@H](CC(C)C)C(=O)N[C@@H](CCCCNCC(O)CO)C(=O)N1CCC[C@H]1C(=O)N[C@H](C)C(N)=O (single isomer, unassigned) [Compound A pamoate] | + 0.4% | + 0.6% | less than 0.5% | less than 1.5% | less than 1.0% | 0.4 - 0.8% | 0.1 - 0.4% | – | – | –
2 | CC(=O)N[C@H](Cc1ccc2ccccc2c1)C(=O)N[C@H](Cc1ccc(Cl)cc1)C(=O)N[C@H](Cc1c[nH]c2ccccc12)C(=O)N[C@@H](CO)C(=O)N[C@@H](Cc1ccc(O)cc1)C(=O)N[C@H](CCCCNCC(O)CO)C(=O)N[C@@H](CC(C)C)C(=O)N[C@@H](CCCCNCC(O)CO)C(=O)N1CCC[C@H]1C(=O)N[C@H](C)C(N)=O (single isomer, unassigned) [Compound A acetate] | – | – | – | – | – | 4.2 - 8.3% | 0.4 - 4.2% | + 0.6% | + 1.3% | 5 - 10%
3 | CC(=O)N[C@H](Cc1ccc2ccccc2c1)C(=O)N[C@H](Cc1ccc(Cl)cc1)C(=O)N[C@H](Cc1c[nH]c2ccccc12)C(=O)N[C@@H](CO)C(=O)N[C@@H](Cc1ccc(O)cc1)C(=O)N[C@H](CCCCNCC(O)CO)C(=O)N[C@@H](CC(C)C)C(=O)N[C@@H](CCCCNCC(O)CO)C(=O)N1CCC[C@H]1C(=O)N[C@H](C)C(N)=O (single isomer, unassigned) [Compound A phosphate] | – | – | – | – | – | 7.0 - 9.0% | 1.2 - 3.5% | + 0.7% | + 1.6% | 5 - 10%

Source: EP0626170A2, “Stabilisation of pharmacologically active compounds in sustained release compositions” (SANDOZ LTD., priority 1993, dated 1994)
